Patent publication US11136329B2, “JAK inhibitors” (Vimalan Biosciences, Inc., priority 2019, dated 2021)
pIC50: −log10 of the molar value.

How the values were obtained:
Format in all cases: biochemical
JAK3 = JAK3 (Homo sapiens (Human), UniProt P52333); experiment: JAK/TYK2 assay (Kinase Glo luminescence), JAK3; conditions: 1.5 nM enzyme, 2 uM ATP, 4 uM pEY, 1 hr
Method: (§1) 10 mM test compound stock or 1 mM control compound stock (tofocitinib, ruxolitinib or staurosporine) in DMSO was diluted to 0.4 mM in DMSO. A 3-fold series dilution was then performed in DMSO to generate 10 different compound concentrations. The assay was carried out in 384-well white plate. 0.5 uL of 40× compound DMSO solution at different concentrations was mixed with 10 uL 2× enzyme prepared in reaction buffer (20 mM HEPES, 10 mM MgCl2, 0.01% Tween, 1 mM DTT, pH 7.5). 10 uL 2× substrate mixture prepared in reaction buffer was then added to start the reaction. A short spin was done to settle down all solutions to the bottom of the plate. Final concentrations of test compound in the reaction mixture were 10000, 3333, 1111, 370, 123, 41.2, 13.7, 4.57, 1.52and 0.51 nM. Concentrations of control compound were ten times less. Enzymatic reaction was conducted at 25° C. for 1-2 hours. 10 uL of Kinase Glo Reagents was added to stop the reaction and generate the luminescent signal which was measured using Envision. Luminescence signal was inversely related to kinase activity. […] The mixture without any compound was the positive control.

JAK2 = JAK2 (Homo sapiens (Human), UniProt O60674); experiment: JAK/TYK2 assay (Kinase Glo luminescence), JAK2; conditions: 0.8 nM enzyme, 2 uM ATP, 4 uM pEY, 1 hr
Sequence of JAK2 (O60674 whole entry, species assumed): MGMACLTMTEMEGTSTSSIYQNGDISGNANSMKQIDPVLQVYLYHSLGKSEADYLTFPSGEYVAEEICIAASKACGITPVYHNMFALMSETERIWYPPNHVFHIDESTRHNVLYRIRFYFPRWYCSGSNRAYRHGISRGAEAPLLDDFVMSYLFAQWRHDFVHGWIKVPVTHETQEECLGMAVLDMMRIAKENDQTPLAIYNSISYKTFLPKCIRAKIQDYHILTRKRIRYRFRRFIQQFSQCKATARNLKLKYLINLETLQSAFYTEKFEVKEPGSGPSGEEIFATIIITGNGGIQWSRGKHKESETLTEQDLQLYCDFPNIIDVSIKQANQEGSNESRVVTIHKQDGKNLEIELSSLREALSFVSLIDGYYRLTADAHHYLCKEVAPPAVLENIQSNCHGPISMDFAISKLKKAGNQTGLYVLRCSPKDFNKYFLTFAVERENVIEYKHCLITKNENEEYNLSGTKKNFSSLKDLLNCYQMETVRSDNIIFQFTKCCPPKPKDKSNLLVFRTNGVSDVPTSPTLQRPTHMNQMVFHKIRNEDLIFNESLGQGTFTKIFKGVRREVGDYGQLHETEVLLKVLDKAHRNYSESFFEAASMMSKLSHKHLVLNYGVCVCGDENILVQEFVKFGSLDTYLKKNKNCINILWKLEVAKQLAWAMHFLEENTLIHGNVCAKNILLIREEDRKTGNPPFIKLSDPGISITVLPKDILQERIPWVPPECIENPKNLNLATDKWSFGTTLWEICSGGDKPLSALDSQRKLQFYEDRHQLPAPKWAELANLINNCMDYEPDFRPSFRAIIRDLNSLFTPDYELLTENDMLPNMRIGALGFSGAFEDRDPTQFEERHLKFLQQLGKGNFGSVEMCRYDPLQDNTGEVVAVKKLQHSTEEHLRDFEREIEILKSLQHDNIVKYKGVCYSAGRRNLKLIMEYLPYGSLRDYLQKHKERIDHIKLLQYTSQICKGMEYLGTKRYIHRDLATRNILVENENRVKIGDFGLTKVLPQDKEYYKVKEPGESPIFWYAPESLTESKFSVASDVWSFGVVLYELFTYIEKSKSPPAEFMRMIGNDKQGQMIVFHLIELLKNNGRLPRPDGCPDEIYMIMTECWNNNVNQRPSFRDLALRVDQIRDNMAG
Method: as §1

JAK1 = JAK1 (Homo sapiens (Human), UniProt P23458); experiment: JAK/TYK2 assay (Kinase Glo luminescence), JAK1; conditions: 7.5 nM enzyme, 2 uM ATP, 30 uM IRS-1, 1 hr
Sequence of JAK1 (P23458 whole entry, species assumed): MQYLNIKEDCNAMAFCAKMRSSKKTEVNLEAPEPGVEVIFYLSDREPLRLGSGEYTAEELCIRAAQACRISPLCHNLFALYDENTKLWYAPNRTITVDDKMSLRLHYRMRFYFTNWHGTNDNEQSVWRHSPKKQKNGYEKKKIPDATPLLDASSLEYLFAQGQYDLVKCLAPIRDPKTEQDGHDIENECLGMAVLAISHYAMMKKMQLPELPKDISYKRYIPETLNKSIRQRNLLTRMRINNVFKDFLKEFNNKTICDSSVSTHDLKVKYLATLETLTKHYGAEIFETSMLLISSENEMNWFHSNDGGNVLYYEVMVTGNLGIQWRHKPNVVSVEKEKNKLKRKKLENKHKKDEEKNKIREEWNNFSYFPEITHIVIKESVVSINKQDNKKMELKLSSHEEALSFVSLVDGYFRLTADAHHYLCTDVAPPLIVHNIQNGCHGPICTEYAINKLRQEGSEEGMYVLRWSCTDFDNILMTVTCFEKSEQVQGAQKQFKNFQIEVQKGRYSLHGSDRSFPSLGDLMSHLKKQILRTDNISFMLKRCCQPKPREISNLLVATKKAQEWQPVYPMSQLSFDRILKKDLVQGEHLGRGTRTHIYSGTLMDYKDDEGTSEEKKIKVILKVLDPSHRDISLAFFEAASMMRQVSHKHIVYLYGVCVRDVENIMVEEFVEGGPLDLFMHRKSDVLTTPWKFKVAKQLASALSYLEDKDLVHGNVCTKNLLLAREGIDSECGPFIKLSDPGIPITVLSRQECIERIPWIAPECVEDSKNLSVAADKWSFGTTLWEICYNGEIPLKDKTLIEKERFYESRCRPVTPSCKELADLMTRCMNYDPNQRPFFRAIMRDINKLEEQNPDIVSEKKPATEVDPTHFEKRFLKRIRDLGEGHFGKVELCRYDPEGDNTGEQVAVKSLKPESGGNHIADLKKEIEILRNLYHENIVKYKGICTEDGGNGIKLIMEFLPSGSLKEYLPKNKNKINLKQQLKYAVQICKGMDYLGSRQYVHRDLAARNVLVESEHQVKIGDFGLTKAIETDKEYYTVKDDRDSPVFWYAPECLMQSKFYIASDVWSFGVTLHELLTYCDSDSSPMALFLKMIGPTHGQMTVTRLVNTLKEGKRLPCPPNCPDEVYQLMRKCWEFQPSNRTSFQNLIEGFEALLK
Method: as §1

TYK2 = TYK2 (Homo sapiens (Human), UniProt P29597); experiment: JAK/TYK2 assay (Kinase Glo luminescence), TYK2; conditions: 9 nM enzyme, 2 uM ATP, 30 uM IRS-1, 1 hr
Sequence of TYK2 (P29597 whole entry, species assumed): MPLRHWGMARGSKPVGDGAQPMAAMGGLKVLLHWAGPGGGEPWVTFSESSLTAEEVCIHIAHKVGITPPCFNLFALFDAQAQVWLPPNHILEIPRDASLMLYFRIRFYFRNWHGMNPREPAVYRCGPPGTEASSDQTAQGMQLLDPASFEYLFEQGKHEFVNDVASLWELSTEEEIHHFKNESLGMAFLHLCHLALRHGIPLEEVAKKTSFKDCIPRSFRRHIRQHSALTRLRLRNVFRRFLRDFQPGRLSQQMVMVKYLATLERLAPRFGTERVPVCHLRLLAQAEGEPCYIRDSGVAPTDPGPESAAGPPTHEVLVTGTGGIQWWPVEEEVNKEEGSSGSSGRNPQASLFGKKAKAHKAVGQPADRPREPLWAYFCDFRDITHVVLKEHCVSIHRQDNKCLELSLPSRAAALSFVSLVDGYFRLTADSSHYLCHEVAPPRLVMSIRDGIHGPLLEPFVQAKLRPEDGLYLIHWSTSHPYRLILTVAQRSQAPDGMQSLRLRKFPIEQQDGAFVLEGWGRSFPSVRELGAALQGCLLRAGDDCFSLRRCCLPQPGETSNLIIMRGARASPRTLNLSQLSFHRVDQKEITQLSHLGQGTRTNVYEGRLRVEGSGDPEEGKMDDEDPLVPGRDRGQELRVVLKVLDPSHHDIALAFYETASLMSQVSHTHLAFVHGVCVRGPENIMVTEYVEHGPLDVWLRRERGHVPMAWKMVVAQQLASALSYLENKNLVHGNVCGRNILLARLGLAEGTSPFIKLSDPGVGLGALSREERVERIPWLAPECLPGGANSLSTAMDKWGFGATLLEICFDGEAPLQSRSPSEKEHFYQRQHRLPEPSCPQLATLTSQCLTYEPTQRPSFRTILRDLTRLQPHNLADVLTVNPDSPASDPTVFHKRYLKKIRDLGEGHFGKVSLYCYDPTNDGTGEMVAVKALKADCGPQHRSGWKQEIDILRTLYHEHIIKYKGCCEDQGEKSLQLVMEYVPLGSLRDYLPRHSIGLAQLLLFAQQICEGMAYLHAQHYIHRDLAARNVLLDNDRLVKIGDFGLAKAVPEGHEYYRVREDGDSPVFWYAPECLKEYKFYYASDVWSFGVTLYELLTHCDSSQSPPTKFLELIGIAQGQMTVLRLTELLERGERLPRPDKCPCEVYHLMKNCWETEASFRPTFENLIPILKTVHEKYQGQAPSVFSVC
Method: as §1

Sequence of JAK3 (P52333 whole entry, species assumed): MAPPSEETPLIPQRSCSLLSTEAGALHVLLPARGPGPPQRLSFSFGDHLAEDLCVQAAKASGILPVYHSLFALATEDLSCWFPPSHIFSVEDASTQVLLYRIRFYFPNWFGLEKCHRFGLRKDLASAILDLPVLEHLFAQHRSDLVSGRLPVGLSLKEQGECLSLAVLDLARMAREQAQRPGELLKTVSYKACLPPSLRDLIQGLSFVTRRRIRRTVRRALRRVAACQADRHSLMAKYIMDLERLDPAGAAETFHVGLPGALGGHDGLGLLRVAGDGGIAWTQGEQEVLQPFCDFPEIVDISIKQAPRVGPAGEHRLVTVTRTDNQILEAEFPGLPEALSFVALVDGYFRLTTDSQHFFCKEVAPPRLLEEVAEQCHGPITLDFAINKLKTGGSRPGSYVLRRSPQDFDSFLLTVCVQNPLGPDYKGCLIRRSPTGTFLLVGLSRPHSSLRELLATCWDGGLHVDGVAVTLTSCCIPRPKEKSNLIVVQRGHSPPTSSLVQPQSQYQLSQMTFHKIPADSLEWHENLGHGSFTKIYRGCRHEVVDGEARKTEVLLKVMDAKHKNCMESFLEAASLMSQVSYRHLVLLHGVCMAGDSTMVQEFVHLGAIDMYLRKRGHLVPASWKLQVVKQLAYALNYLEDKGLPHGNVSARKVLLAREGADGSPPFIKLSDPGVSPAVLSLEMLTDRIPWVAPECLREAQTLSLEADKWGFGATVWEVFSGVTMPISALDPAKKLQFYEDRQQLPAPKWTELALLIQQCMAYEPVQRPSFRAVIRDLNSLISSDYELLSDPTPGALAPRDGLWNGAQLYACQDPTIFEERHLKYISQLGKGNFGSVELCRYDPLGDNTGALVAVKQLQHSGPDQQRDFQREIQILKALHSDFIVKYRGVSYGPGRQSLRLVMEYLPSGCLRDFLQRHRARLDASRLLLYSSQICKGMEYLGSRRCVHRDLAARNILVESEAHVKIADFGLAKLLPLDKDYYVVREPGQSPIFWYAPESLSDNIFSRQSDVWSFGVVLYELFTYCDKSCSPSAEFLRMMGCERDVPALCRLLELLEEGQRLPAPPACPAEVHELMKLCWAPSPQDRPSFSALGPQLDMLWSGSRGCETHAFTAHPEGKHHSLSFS

Row | Compound | pIC50 (JAK3) | pIC50 (JAK2) | pIC50 (JAK1) | pIC50 (TYK2)
1 | CCC(CC)Cn1ccc2cnc(Nc3cnn(CC(=O)O)c3)nc21 [Compound 9, 2-(4-((7-(2-ethylbutyl)-7H-pyrrolo[2,3-d]pyrimidin-2-yl)amino)-1H-pyrazol-1-yl)acetic acid] | > 7.00 | > 7.00 | > 7.00 | > 7.00
2 | CCOC(=O)Cn1cc(Nc2ncc3ccn(CC4CCCCC4)c3n2)cn1 [Compound 13, ethyl 2-(4-((7-(cyclohexylmethyl)-7H-pyrrolo[2,3-d]pyrimidin-2-yl)amino)-1H-pyrazol-1-yl)acetate] | > 7.00 | > 7.00 | > 7.00 | > 7.00
3 | CCOC(=O)Cn1cc(Nc2ncc3ccn(CC4CCC4)c3n2)cn1 [Compound 14, ethyl 2-(4-((7-(cyclobutylmethyl)-7H-pyrrolo[2,3-d]pyrimidin-2-yl)amino)-1H-pyrazol-1-yl)acetate] | > 7.00 | – | – | –
4 | O=C(O)Cn1cc(Nc2ncc3ccn(CC4CCCCC4)c3n2)cn1 [Compound 15, 2-(4-((7-(cyclohexylmethyl)-7H-pyrrolo[2,3-d]pyrimidin-2-yl)amino)-1H-pyrazol-1-yl)acetic acid] | > 7.00 | > 7.00 | > 7.00 | > 7.00
5 | CCOC(=O)CCn1cc(Nc2ncc3ccn(Cc4ccsc4)c3n2)cn1 [Compound 16, ethyl 3-(4-((7-(thiophen-3-ylmethyl)-7H-pyrrolo[2,3-d]pyrimidin-2-yl)amino)-1H-pyrazol-1-yl)propanoate] | > 7.00 | > 7.00 | 6.00 to 7.00 | > 7.00
6 | CCOC(=O)Cn1cc(Nc2ncc3ccn(CC4CCCC4)c3n2)cn1 [Compound 17, ethyl 2-(4-((7-(cyclopentylmethyl)-7H-pyrrolo[2,3-d]pyrimidin-2-yl)amino)-1H-pyrazol-1-yl)acetate] | > 7.00 | > 7.00 | > 7.00 | > 7.00
7 | CCOC(=O)Cn1cc(Nc2ncc3ccn(CCC4CCCCC4)c3n2)cn1 [Compound 18, ethyl 2-(4-((7-(2-cyclohexylethyl)-7H-pyrrolo[2,3-d]pyrimidin-2-yl)amino)-1H-pyrazol-1-yl)acetate] | > 7.00 | 6.00 to 7.00 | < 5.00 | > 7.00
8 | O=C(O)CCn1cc(Nc2ncc3ccn(Cc4ccsc4)c3n2)cn1 [Compound 19, 3-(4-((7-(thiophen-3-ylmethyl)-7H-pyrrolo[2,3-d]pyrimidin-2-yl)amino)-1H-pyrazol-1-yl)propanoic acid] | > 7.00 | > 7.00 | > 7.00 | > 7.00
9 | CCOC(=O)Cn1cc(Nc2ncc3ccn(CC=C(C)C)c3n2)cn1 [Compound 22, ethyl 2-(4-((7-(3-methylbut-2-en-1-yl)-7H-pyrrolo[2,3-d]pyrimidin-2-yl)amino)-1H-pyrazol-1-yl)acetate] | > 7.00 | > 7.00 | 6.00 to 7.00 | > 7.00
10 | CC#CCn1ccc2cnc(Nc3cnn(CC(=O)OCC)c3)nc21 [Compound 23, ethyl 2-(4-((7-(but-2-yn-1-yl)-7H-pyrrolo[2,3-d]pyrimidin-2-yl)amino)-1H-pyrazol-1-yl)acetate] | > 7.00 | 6.00 to 7.00 | 6.00 to 7.00 | 6.00 to 7.00
11 | CCOC(=O)Cn1cc(Nc2ncc3ccn(CCC#N)c3n2)cn1 [Compound 24, ethyl 2-(4-((7-(2-cyanoethyl)-7H-pyrrolo[2,3-d]pyrimidin-2-yl)amino)-1H-pyrazol-1-yl)acetate] | 6.00 to 7.00 | 6.00 to 7.00 | 5.00 to 6.00 | 6.00 to 7.00
12 | CCOC(=O)Cn1cc(Nc2ncc3ccn(CC4CC4)c3n2)cn1 [Compound 25, ethyl 2-(4-((7-(cyclopropylmethyl)-7H-pyrrolo[2,3-d]pyrimidin-2-yl)amino)-1H-pyrazol-1-yl)acetate] | > 7.00 | – | – | –
13 | CCOC(=O)c1ccc(Nc2ncc3ccn(CC(CC)CC)c3n2)cc1 [Compound 26, ethyl 4-((7-(2-ethylbutyl)-7H-pyrrolo[2,3-d]pyrimidin-2-yl)amino)benzoate] | 6.00 to 7.00 | 6.00 to 7.00 | 6.00 to 7.00 | 6.00 to 7.00
14 | CCOC(=O)C(C)n1cc(Nc2ncc3ccn(CC(CC)CC)c3n2)cn1 (centres unmarked) [Compound 28, ethyl 2-(4-((7-(2-ethylbutyl)-7H-pyrrolo[2,3-d]pyrimidin-2-yl)amino)-1H-pyrazol-1-yl)propanoate] | > 7.00 | > 7.00 | > 7.00 | > 7.00
15 | CCOC(=O)c1nc(Cn2ccc3cnc(Nc4cnn(C)c4)nc32)cs1 [Compound 56] | 5.00 to 6.00 | 5.00 to 6.00 | 5.00 to 6.00 | –
16 | CCOC(=O)Cn1ccc2cnc(Nc3cnn(C)c3)nc21 [Compound 57, ethyl 2-(2-((1-methyl-1H-pyrazol-4-yl)amino)-7H-pyrrolo[2,3-d]pyrimidin-7-yl)acetate] | 5.00 to 6.00 | 6.00 to 7.00 | 5.00 to 6.00 | –
17 | CCOC(=O)c1ccc(Cn2ccc3cnc(Nc4cnn(C)c4)nc32)s1 [Compound 58, ethyl 5-((2-((1-methyl-1H-pyrazol-4-yl)amino)-7H-pyrrolo[2,3-d]pyrimidin-7-yl)methyl)thiophene-2-carboxylate] | 5.00 to 6.00 | – | – | –
18 | C=CC(=O)Nc1cccc(Cn2ccc3cnc(Nc4cnn(CC(=O)OCC)c4)nc32)c1 [Compound 95, ethyl 2-(4-((7-(3-acrylamidobenzyl)-7H-pyrrolo[2,3-d]pyrimidin-2-yl)amino)-1H-pyrazol-1-yl)acetate] | 6.00 to 7.00 | 6.00 to 7.00 | 6.00 to 7.00 | –
19 | CCOC(=O)Cn1cc(Nc2ncc3ccn(C[C@H]4CC[C@H](NC)CC4)c3n2)cn1 [Compound 123] | – | > 7.00 | 6.00 to 7.00 | > 7.00
20 | CCOC(=O)Cn1cc(Nc2ncc3ccn(CC4CCS(=O)(=O)CC4)c3n2)cn1 [Compound 125, ethyl 2-(4-((7-((1,1-dioxidotetrahydro-2H-thiopyran-4-yl)methyl)-7H-pyrrolo[2,3-d]pyrimidin-2-yl)amino)-1H-pyrazol-1-yl)acetate] | – | 5.00 to 6.00 | 5.00 to 6.00 | 6.00 to 7.00

Next, values leading:

Row | pIC50 (JAK3) | pIC50 (JAK2) | pIC50 (JAK1) | pIC50 (TYK2) | Compound
21 | > 7.00 | > 7.00 | > 7.00 | > 7.00 | CCOC(=O)Cn1cc(Nc2ncc3ccn(CC(CC)CC)c3n2)cn1 [Compound 8, ethyl 2-(4-((7-(2-ethylbutyl)-7H-pyrrolo[2,3-d]pyrimidin-2-yl)amino)-1H-pyrazol-1-yl)acetate]
22 | > 7.00 | > 7.00 | > 7.00 | > 7.00 | CCOC(=O)Cn1cc(Nc2ncc3ccn(Cc4ccsc4)c3n2)cn1 [Compound 10, ethyl 2-(4-((7-(thiophen-3-ylmethyl)-7H-pyrrolo[2,3-d]pyrimidin-2-yl)amino)-1H-pyrazol-1-yl)acetate]
23 | > 7.00 | > 7.00 | 6.00 to 7.00 | > 7.00 | O=C(O)Cn1cc(Nc2ncc3ccn(Cc4ccsc4)c3n2)cn1 [Compound 11, 2-(4-((7-(thiophen-3-ylmethyl)-7H-pyrrolo[2,3-d]pyrimidin-2-yl)amino)-1H-pyrazol-1-yl)acetic acid]
24 | 6.00 to 7.00 | – | – | – | CCOC(=O)c1ccc(Nc2ncc3ccn(Cc4ccsc4)c3n2)cc1 [Compound 12, ethyl 4-((7-(thiophen-3-ylmethyl)-7H-pyrrolo[2,3-d]pyrimidin-2-yl)amino)benzoate]
25 | > 7.00 | 6.00 to 7.00 | 6.00 to 7.00 | > 7.00 | CCOC(=O)Cn1cc(Nc2ncc3ccn(CC(C)(C)C)c3n2)cn1 [Compound 20, ethyl 2-(4-((7-neopentyl-7H-pyrrolo[2,3-d]pyrimidin-2-yl)amino)-1H-pyrazol-1-yl)acetate]
26 | > 7.00 | > 7.00 | > 7.00 | > 7.00 | CCOC(=O)Cn1cc(Nc2ncc3ccn(CCC(C)C)c3n2)cn1 [Compound 21, ethyl 2-(4-((7-isopentyl-7H-pyrrolo[2,3-d]pyrimidin-2-yl)amino)-1H-pyrazol-1-yl)acetate]
27 | > 7.00 | > 7.00 | > 7.00 | > 7.00 | CCOC(=O)C(C)(C)n1cc(Nc2ncc3ccn(CC(CC)CC)c3n2)cn1 [Compound 27, ethyl 2-(4-((7-(2-ethylbutyl)-7H-pyrrolo[2,3-d]pyrimidin-2-yl)amino)-1H-pyrazol-1-yl)-2-methylpropanoate]
28 | > 7.00 | – | – | – | CCOC(=O)Cn1cc(Nc2ncc3c(Cl)cn(CC4CCCCC4)c3n2)cn1 [Compound 60, ethyl 2-(4-((5-chloro-7-(cyclohexylmethyl)-7H-pyrrolo[2,3-d]pyrimidin-2-yl)amino)-1H-pyrazol-1-yl)acetate]
29 | – | > 7.00 | 6.00 to 7.00 | > 7.00 | CCOC(=O)Cn1cc(Nc2ncc3ccn(CC4CCSCC4)c3n2)cn1 [Compound 126, ethyl 2-(4-((7-((tetrahydro-2H-thiopyran-4-yl)methyl)-7H-pyrrolo[2,3-d]pyrimidin-2-yl)amino)-1H-pyrazol-1-yl)acetate]
